Patent US8455525B2, “Selective androgen receptor modulators” (Radius Health, Inc., priority 2008, dated 2013)

Columns and labels:
[1] = target: T1, androgen receptor (AR) (Rattus norvegicus, UniProt P15207); assay: androgen receptor binding assay (fluorescence polarization, Fluormone AL Green competition)
T1 construct: purchased Invitrogen, Madison, Wis
T1 sequence (P15207 651-902 limits assumed): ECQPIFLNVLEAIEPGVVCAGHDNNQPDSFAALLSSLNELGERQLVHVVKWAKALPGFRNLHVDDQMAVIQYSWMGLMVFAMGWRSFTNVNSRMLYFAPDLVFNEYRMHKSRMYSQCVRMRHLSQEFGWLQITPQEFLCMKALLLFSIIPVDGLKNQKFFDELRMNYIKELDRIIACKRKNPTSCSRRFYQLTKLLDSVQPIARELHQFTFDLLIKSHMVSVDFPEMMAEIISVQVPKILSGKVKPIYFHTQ

[2] = test system: young, orchidectomized rats; assay: Rat Herschberger assay: organ weights of orchidectomized rats relative to sham; type: in vivo, rat (Sprague Dawley); conditions: 10 mg/kg (po), once daily for 4 days
Source text: The following is a typical procedure of the in vivo evaluation of the selective androgens of this invention. In particular, this assay looks primarily at the ability of the selective androgens of this invention to increase muscle size in an immature, castrated rat. In addition, androgenic effects are looked at primarily by weighing the prostate and seminal vesicles. Selective compounds will show a greater increase in the levator ani relative to the prostate and seminal vesicles when compared to testosterone treated, castrated animals or to intact animals that have not been treated. Immature Sprague Dawley male rats were obtained Charles River Laboratories (Stoneridge, N.Y.). All animals were maintained in a temperature and humidity controlled room with a 12 hr light: 12 hr dark cycle, with ad lib access to food (TD 291615, Teklad, Madison, Wis.) and water. Rats were anesthetized and orchidectomized (GDX) or sham surgery (SHAM) was performed. After a 7-day recovery period, the animals were randomized according to weight and assigned to treatment groups (n=5), SHAM, OVX+ vehicle, OVX+Cpd treated. Testosterone propionate (TP 1 mg/kg in 5% DMSO/95% corn oil) was administered by once daily subcutaneous injections, while the compounds of the invention are dosed in vehicle (typically 20% cyclodextrin or 0.5% carboxymethylcellulose) was administered by once daily oral gavage. The rats were then dosed once daily for 4 days. All animals were euthanized via carbon dioxide inhalation 24 hs after the last dose. The prostate, seminal vesicle and levator ani and bulba cavernous (LABC) tissues were removed, weighed and recorded. Body weights were recorded for each animal at baseline and at sacrifice.
Prostate, seminal vesicle and levator ani bulbus cavernosus (LABC) are all represented as % relative to sham. After sacrifice, organ weights of young, orchidectomized rats treated with compound for 4 days are compared to sham operated animals.

| Structure (SMILES) | IC50 [1] | LABC (levator ani bulbus cavernosus) weight, % relative to sham [2] | Prostate weight, % relative to sham [2] | Seminal vesicle weight, % relative to sham [2] |
| --- | --- | --- | --- | --- |
| Cc1c(N[C@@H](c2nnc(-c3ccccc3)o2)[C@H](C)O)ccc(C#N)c1Cl [Example 1, 2-chloro-4-((1R,2S)-2-hydroxy-1-(5-phenyl-1,3,4-oxadiazol-2-yl)propylamino)-3-methylbenzonitrile] | 3 nM | 85% | 46% | 69% |
| Cc1c(N[C@@H](c2nnc(-c3ccccc3)o2)[C@@H](C)O)ccc(C#N)c1Cl [Example 3, 2-chloro-4-((1R,2R)-2-hydroxy-1-(5-phenyl-1,3,4-oxadiazol-2-yl)propylamino)-3-methylbenzonitrile] | 6 nM | 99% | 43% | 37% |
| Cc1c(N[C@@H](c2nnc(-c3cccc(F)c3)o2)[C@H](C)O)ccc(C#N)c1Cl [Example 81, 2-chloro-4-((1R,2S)-1-(5-(3-fluorophenyl)-1,3,4-oxadiazol-2-yl)-2-hydroxypropylamino)-3-methylbenzonitrile] | 2 nM |  |  |  |
